Measurements: US8143403B2 (Bristol-Myers Squibb Company, priority 2008, dated 2012)

Assays:
Human CGRP Receptor = target: T1, Human CGRP Receptor (Homo sapiens, UniProt O60894+Q16602); experiment: Radioligand binding assay, [125I]-CGRP displacement on SK-N-MC membranes; details: displacement of [125I]-CGRP (18 pM final), 2 h room temperature
T1 construct: Crude membranes were prepared from SK-N-MC cells expressing CGRP receptors; endogenous in cells; host or cells: SK-N-MC cells (crude membranes)
Method: Tissue Culture. SK-N-MC cells were grown at 37° C. in 5% CO2 as a monolayer in medium consisting of MEM with Earle's salts and L-glutamine (Invitrogen) supplemented with 10% fetal bovine serum (Invitrogen).
Membrane Preparation. Crude membranes were prepared from SK-N-MC cells expressing CGRP receptors. The cells were rinsed twice with phosphate-buffered saline (155 mM NaCl, 3.3 mM Na2HPO4, 1.1 mM KH2PO4, pH 7.4), and incubated for 5-10 min. at 4° C. in hypotonic lysis buffer consisting of 10 mM Tris (pH 7.4) and 5 mM EDTA. The cells were transferred from plates to polypropylene tubes (16×100 mm) and homogenized using a polytron. Homogenates were centrifuged at 32,000×g for 30 min. The pellets were resuspended in cold hypotonic lysis buffer with 0.1% mammalian protease inhibitor cocktail (Sigma) and assayed for protein concentration. The SK-N-MC homogenate was aliquoted and stored at −80° C. Radioligand Binding Assay. The compounds of invention were solubilized and carried through serial dilutions using 100% DMSO. Aliquots from the compound serial dilutions were further diluted 25 fold into assay buffer (50 mM Tris-Cl pH 7.5, 5 mM MgCl2, 0.005% Triton X-100) and transferred (volume 50 μl) into 96 well assay plates. [^125I]-CGRP (GE Healthcare or Perkin-Elmer) was diluted to 72 pM in assay buffer and a volume of 50 μl was added to each well. SK-N-MC membranes were thawed, diluted in assay buffer with fresh 0.1% mammalian protease inhibitor cocktail (Sigma), and re-homogenized. SK-N-MC homogenate (7 μg/well) was added in a volume of 100 μl. The assay plates were then incubated at room temperature for 2 h. Assays were stopped by addition of excess cold wash buffer (50 mM Tris-Cl pH 7.5, 0.1% BSA) immediately followed by filtration over glass fiber filters (Whatman GF/B) previously soaked in 0.5% PEI. Non-specific binding was defined with 1 μM beta-CGRP (Bachem). Protein bound radioactivity was determined using a gamma or scintillation counter. The resulting data was analyzed using a four parameter competitive binding equation (XLfit v2.0) and the IC50 was defined as the concentration of a compound of invention required to displace 50% of radioligand binding. Final assay concentration of [^125I]-CGRP was 18 pM. […] All compounds of invention were evaluated in at least two separate experiments.

[1] = target: T2, CGRP receptors (SK-N-MC cell membranes) (Homo sapiens, UniProt O60894+Q16602); experiment: Saturation/Scatchard analysis of [125I]-CGRP binding to SK-N-MC cell membranes
T2 construct: Crude membranes were prepared from SK-N-MC cells expressing CGRP receptors; endogenous in cells; host or cells: SK-N-MC cells (crude membranes)
Method: FIG. 1. [^125I]-CGRP Saturation/Scatchard Analysis. [^125I]-CGRP saturation using SK-N-MC membranes in the absence (filled squares) and presence (all others) of CGRP antagonist example 20. Inset depicts a Scatchard plot of same data.
Saturation/Scatchard Analysis. The nature of the interaction between the human CGRP peptide and example 20 was studied in detail using saturation binding experiments. The binding of increasing concentrations of [^125I]-CGRP to SK-N-MC cell membranes was measured in the absence (control condition) and in the presence of 300 pM and 600 pM example 20. Saturation data were analyzed using a one site binding equation to estimate apparent equilibrium dissociation constant (Kd) and the maximum number of binding sites (Bmax) (Prizm v4.0, Graphpad). The impact of the addition of example 20 to the binding parameters (Kd, Bmax) of [^125I]-CGRP binding was measured and compared. […] Example 20 was evaluated in 3 separate experiments (for representative dataset, see FIG. 1. [^125I]-CGRP Saturation/Scatchard Analysis). Functional Antagonism/Schild analysis. Agonist stimulation of CGRP receptor complex leads to cyclic AMP (adenosine 3′5′-cyclic monophosphate) production via Gs-dependent activation of an adenylate cyclase (Juaneda C et al., TiPS, 2000; 21:432-438). Consequently, CGRP receptor antagonists inhibit CGRP-induced cyclic AMP formation in SK-N-MC cells which natively express the CGRP receptor complex (Doods H et al., Br J Pharmacol, 2000; 129(3):420-423). Example 20 was evaluated for its ability to block CGRP induced cAMP formation using a commercially available cAMP HTRF kit (catalog number 62AM2PEC, CisBio International). […] The cells were lysed with lysis reagent and cAMP concentrations were determined by HTRF according to the manufacturer's instructions. A standard curve using known quantities of cAMP was evaluated in parallel to allow conversion of HTRF ratio to nM cAMP. The resulting curves were then evaluated using a Gaddum/Schild equation individually and with global fitting (Prizm v4.0, Graphpad). […]

T2 sequence (Q16602 23-461): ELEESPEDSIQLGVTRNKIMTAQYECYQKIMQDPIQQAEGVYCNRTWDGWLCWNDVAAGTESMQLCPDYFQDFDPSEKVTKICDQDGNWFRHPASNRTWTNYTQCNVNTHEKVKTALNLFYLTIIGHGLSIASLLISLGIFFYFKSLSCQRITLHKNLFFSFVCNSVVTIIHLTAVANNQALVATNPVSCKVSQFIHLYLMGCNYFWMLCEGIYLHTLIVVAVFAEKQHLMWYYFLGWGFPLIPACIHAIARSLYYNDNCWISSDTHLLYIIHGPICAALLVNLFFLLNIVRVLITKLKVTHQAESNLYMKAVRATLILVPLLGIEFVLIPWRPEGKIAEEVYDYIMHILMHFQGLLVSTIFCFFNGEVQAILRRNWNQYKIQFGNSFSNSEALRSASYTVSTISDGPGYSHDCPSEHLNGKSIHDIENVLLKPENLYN
T2 sequence (O60894 27-148): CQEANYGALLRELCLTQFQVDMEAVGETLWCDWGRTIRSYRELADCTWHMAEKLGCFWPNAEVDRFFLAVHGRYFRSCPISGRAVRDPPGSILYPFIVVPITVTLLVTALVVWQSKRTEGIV
T1 sequence (Q16602 23-461): as the sequence (Q16602 23-461) above
T1 sequence (O60894 27-148): as the sequence (O60894 27-148) above

With `O=C(O[C@@H]1CC[C@@H](c2cccc(F)c2F)Cc2cccnc21)N1CCC(n2c(=O)[nH]c3ncccc32)CC1` [Example 20] the IC50 (Human CGRP Receptor) was 0.12 nM, the “effect on maximum binding sites of [125I]-CGRP binding (Bmax)” value ([1]; 300 pM and 600 pM example 20 vs control) was “without significantly changing the maximum binding sites” and the “effect on Kd of [125I]-CGRP binding” value ([1]; 300 pM and 600 pM example 20 vs control, 3 experiments) was “dose-dependently increased the Kd”. For the same compound, the “mechanism of inhibition of [125I]-CGRP binding” value ([1]; saturation binding) was “competitive mechanism of inhibition”.
